According to ChEMBL document CHEMBL3351687, “Crystallographic and receptor binding characterization of Plasmodium falciparum macrophage migration inhibitory factor complexed to two potent inhibitors” (J Med Chem, 2014):
Activity calls are given as the source filed them. The calls are words filed in the database; no cut-off is given here.

Assays:
[1] = tested on: Plasmodium falciparum; assay: Inhibition of purified full-length biotinylated-Plasmodium falciparum macrophage migration inhibitory factor binding to human sCD74 at 2.5 uM after 45 mins
[2] = target: T1, Macrophage migration inhibitory factor (Homo sapiens) (UniProt P14174); assay: Inhibition of recombinant human macrophage migration inhibitory factor binding to human ectodomain CD74 at 0.1 to 2.5 uM
T1 sequence (whole entry): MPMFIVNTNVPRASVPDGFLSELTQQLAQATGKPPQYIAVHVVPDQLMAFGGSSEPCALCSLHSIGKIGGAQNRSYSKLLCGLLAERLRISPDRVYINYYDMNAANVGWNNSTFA

SMILES: COc1ccc(-c2cc(Oc3cc(C)cc(OC)c3)cc(C)n2)cc1
- inhibition [1]: 75%
- inhibition [2]: inactive

SMILES: Cc1cc(Oc2cccc(O)c2)cc(-c2ccccc2)n1
- inhibition [1]: 25%
- inhibition [2]: inactive
